We go through 15 molecules from paper PMC3742241, “Novel Hybrid Virtual Screening Protocol Based on Molecular Docking and Structure-Based Pharmacophore for Discovery of Methionyl-tRNA Synthetase Inhibitors as Antibacterial Agents” (International Journal of Molecular Sciences, 2013).

Data set [1] deals with Escherichia coli ATCC 25922. Put plainly: In vitro MIC, broth microdilution, E. coli. The data set is classed as cell-based. The conditions noted are these: ATCC25922, 5 × 10^5 CFU/mL, 16 h at 37 °C, read-out: MIC, Gram-negative bacteria, E. coli. Here is the method: (§1) The 15 final hit compounds were purchased and screened for preliminary in vitro antibacterial activity against our five ATCC-bacterial strain panel (Staphylococcus aureus ATCC 29213, Methicillin-resistant Staphylococcus aureus ATCC 43300, E. coli ATCC 25922, Pseudomonas aeruginosa ATCC 27853 and Klebsiella pneumoniae ATCC 700603) by using the standard broth dilution method. […] All of the 15 final hit compounds were tested against HEK293 cell lines to avoid potential cytotoxicity of normal human cells. […] Further chemical optimization is being performed to better understand the key residues for activity and selectivity.
(§2) MICs were determined using a microdilution method with Muellere Hinton Broth (MHB) for Staphylococci and Lennox Broth (LB) for Enterococci, following the National Committee for Clinical Laboratory Standards (NCCLS) (now called the Clinical Laboratory Standards Institute [CLSI]). The stock solutions of the test compounds were diluted to give a two-fold series, with final chemical concentrations ranging from […].

Data set [2] deals with Staphylococcus aureus ATCC 29213. Put plainly: In vitro MIC, broth microdilution, S. aureus. To be noted: ATCC29213, 5 × 10^5 CFU/mL, 16 h at 37 °C, read-out: MIC, Gram-positive bacteria, S. aureus. The data set is classed as cell-based. The procedure: as §1, §2
The subject of data set [3] is Methicillin-resistant Staphylococcus aureus ATCC 43300. The experiment in a line: In vitro MIC, broth microdilution, MRSA. The conditions noted are these: 5 × 10^5 CFU/mL, 16 h at 37 °C, read-out: MIC, Gram-positive bacteria, MRSA. The class given is cell-based. The procedure:
as §1, §2

The subject of the next data set is HEK293 cells. Put plainly: In vitro cytotoxicity assay (MTT). The data set is classed as cell-based, Human. The procedure:
as §1
(§3) Human Embryonic Kidney 293 cell line (HEK293) was acquired from ATCC. The cells were cultured in DMEM medium (Gibco-BRL, Invitrogen Co. Ltd., Carlsbad, CA, USA) supplemented with 10% (v/v) fetal bovine serum plus 100 μg/mL amikacin. The cells were maintained in a 37 °C humidified incubator with 5% CO2 atmosphere. Analysis of in vitro cytotoxicity was performed in the presence of compounds or blank solvent on cell lines seeded in 96-well plates at the density of 2 × 10^3 cells/well in serum-containing media. After 24 h incubation at 37 °C, the cells were treated with different concentrations of compounds along with a blank solvent. The cells were incubated in these conditions for 48 h. The cell viability was assessed with the 3-(4,5-dimethylthiazol-2-yl)-2,5-diphenyltetrazolium bromide (MTT) method, as previously described.

Data set [4] can be described thus: In vitro cytotoxicity assay (MTT). The data set is classed as cell-based, Human. To be noted: human; HEK293 cells; 48 h; MTT. Here is the method: as §1, §3
Data set [5] concerns Klebsiella pneumoniae ATCC 700603. The experiment in a line: In vitro MIC, broth microdilution, K. pneumoniae. The data set is classed as cell-based. The conditions noted are these: ATCC700603, 5 × 10^5 CFU/mL, 16 h at 37 °C, read-out: MIC, Gram-negative bacteria, K. pneumoniae. Here is the method:
as §1, §2

Data set [6] relates to Pseudomonas aeruginosa ATCC 27853. The experiment in a line: In vitro MIC, broth microdilution, P. aeruginosa. The data set is classed as cell-based. To be noted: ATCC27853, 5 × 10^5 CFU/mL, 16 h at 37 °C, read-out: MIC, Gram-negative bacteria, P. aeruginosa. Here is the method: as §1, §2

Converted amounts (≈) assume the structure as drawn. Where only a bound is given, the exact number is not on record here.

Regarding `CC1(C)Cc2c(ccc3ccccc23)C(NNC(=O)c2cccc(N)c2)=N1` [ZINC00729256], the MIC in data set [1] came out at 32 µg/mL (≈ 89.3 µM); in data set [2], 8 µg/mL (≈ 22.3 µM); in data set [3] it was 16 µg/mL (≈ 44.6 µM); in data set [5], 16 µg/mL (≈ 44.6 µM); in data set [6] it was 4 µg/mL (≈ 11.2 µM). Further, the “Cytotoxicity to HEK293 cells (in words)” value in the data set on HEK293 cells is reported as “non-cytotoxicity”. Also, in data set [4], the IC50 at 48 h is greater than 20 µM.

Consider `Cc1ccc2ccc([C@H](Nc3ccccn3)c3ccc(C)c(C)c3)c(O)c2n1` [ZINC02086896], for which the MIC in data set [1] was found to be 32 µg/mL (≈ 86.6 µM); in data set [2], 32 µg/mL (≈ 86.6 µM); in data set [3] it was 64 µg/mL (≈ 173 µM); in data set [5], 64 µg/mL (≈ 173 µM); in data set [6], 16 µg/mL (≈ 43.3 µM). Further, in data set [4], 3.15 µM corresponded to half-maximal inhibition (IC50 at 48 h).

As to `CNC(=O)NC(=O)CSc1nc2sc(-c3ccccc3)cc2c(=O)n1N` [ZINC02181060], the MIC in data set [1] turned out to be 8 µg/mL (≈ 20.5 µM); in data set [2], 4 µg/mL (≈ 10.3 µM); in data set [3], 16 µg/mL (≈ 41.1 µM); in data set [5] it was 32 µg/mL (≈ 82.2 µM); in data set [6] it was 16 µg/mL (≈ 41.1 µM). The IC50 at 48 h in data set [4] stood at 15.4 µM.

`CCCC[n+]1c(N)c(C(=O)NCc2ccc(C)cc2)cc2c(=O)n3cccc(C)c3nc21` [ZINC02424508]: the MIC in data set [1] is 16 µg/mL; in data set [2], 16 µg/mL; in data set [3], 32 µg/mL; in data set [5] it was 64 µg/mL; in data set [6], 64 µg/mL. In addition, in data set [4], the IC50 at 48 h was greater than 20 µM.

For the molecule `Cc1sc(NC(=O)c2ccco2)c(C(Nc2ccccn2)c2ccccc2)c1C` (centres unmarked) [ZINC02709613], the MIC was 64 µg/mL (≈ 159 µM) in data set [1]; 64 µg/mL (≈ 159 µM) in data set [2]; 64 µg/mL (≈ 159 µM) in data set [3]; 64 µg/mL (≈ 159 µM) in data set [5]; 16 µg/mL (≈ 39.7 µM) in data set [6]. The molecule further registered an IC50 at 48 h in data set [4] greater than 20 µM.

Take `COc1ccc(C(=O)N2CCN(CCNC(=O)C(=O)Nc3ccccc3)CC2)cc1` [ZINC04380079]: the MIC in data set [1] was 64 µg/mL (≈ 156 µM); in data set [2] it was 32 µg/mL (≈ 78 µM); in data set [3] it was 64 µg/mL (≈ 156 µM); in data set [5], 64 µg/mL (≈ 156 µM); in data set [6] it was 64 µg/mL (≈ 156 µM). The same molecule gave an IC50 at 48 h in data set [4] of 6.84 µM.

As to `CCc1ccc(NC(=O)C(=O)NCCN2CCN(C(=O)c3ccc(Cl)cc3Cl)CC2)cc1` [ZINC06843697], the MIC in data set [1] was 16 µg/mL (≈ 33.5 µM); in data set [2], 4 µg/mL (≈ 8.38 µM); in data set [3], 4 µg/mL (≈ 8.38 µM); in data set [5] it was 64 µg/mL (≈ 134 µM); in data set [6] it was 8 µg/mL (≈ 16.8 µM). In the data set on HEK293 cells, the “Cytotoxicity to HEK293 cells (in words)” value is reported as “non-cytotoxicity”. This molecule came in with an IC50 at 48 h in data set [4] greater than 20 µM.

Turning to `CCCCCCCC[n+]1cccc(C(=O)N2CCNc3nc(NC(=O)C(C)C)[nH]c(=O)c32)c1` [ZINC08384332], the MIC amounted to 32 µg/mL in data set [1]; 32 µg/mL in data set [2]; 32 µg/mL in data set [3]; 64 µg/mL in data set [5]; 16 µg/mL in data set [6]. Moreover, the IC50 at 48 h in data set [4] was greater than 20 µM.

As for `Cc1ccc2c(c1)c1c3n2CCN(CC(=O)CNNC(=O)c2ccccc2)C3CCC1` (centres unmarked) [ZINC08430843], the MIC in data set [1] was 64 µg/mL (≈ 154 µM); in data set [2], 16 µg/mL (≈ 38.4 µM); in data set [3] it was 32 µg/mL (≈ 76.8 µM); in data set [5], 64 µg/mL (≈ 154 µM); in data set [6] it was 32 µg/mL (≈ 76.8 µM). In data set [4], this molecule gave an IC50 at 48 h greater than 20 µM.

With `O=C(NCCN1CCN(C(=O)c2ccc(Cl)cc2Cl)CC1)C(=O)Nc1ccc(Br)cc1` [ZINC08451958], the MIC in data set [1] was 64 µg/mL (≈ 121 µM); in data set [2] it was 32 µg/mL (≈ 60.6 µM); in data set [3], 32 µg/mL (≈ 60.6 µM); in data set [5], 64 µg/mL (≈ 121 µM); in data set [6], 64 µg/mL (≈ 121 µM). In addition, the half-inhibitory concentration (IC50) at 48 h in data set [4] is greater than 20 µM.

Regarding `Cc1ccccc1C(=O)N1CCN(CCNC(=O)C(=O)Nc2ccc(Br)cc2)CC1` [ZINC08452043], the MIC in data set [1] is 16 µg/mL (≈ 33.8 µM); in data set [2], 8 µg/mL (≈ 16.9 µM); in data set [3], 16 µg/mL (≈ 33.8 µM); in data set [5] it was 32 µg/mL (≈ 67.6 µM); in data set [6], 8 µg/mL (≈ 16.9 µM). Besides, 10.2 µM corresponded to half-maximal inhibition in data set [4] (IC50 at 48 h).

In the case of `CN(C)CCCNC(=O)c1ccccc1NC(=O)c1ccc(-c2ccccc2)cc1` [ZINC10312776], the MIC worked out at 64 µg/mL (≈ 159 µM) in data set [1]; 64 µg/mL (≈ 159 µM) in data set [2]; 64 µg/mL (≈ 159 µM) in data set [3]; 32 µg/mL (≈ 79.7 µM) in data set [5]; 16 µg/mL (≈ 39.8 µM) in data set [6]. In data set [4], this molecule had an IC50 at 48 h greater than 20 µM.

As to `CC1CCCc2sc3nc(SCC(=O)NC(=O)Nc4ccccc4)n(N)c(=O)c3c21` (centres unmarked) [ZINC19797059], the MIC in data set [1] is 64 µg/mL (≈ 144 µM); in data set [2], 32 µg/mL (≈ 72.1 µM); in data set [3], 32 µg/mL (≈ 72.1 µM); in data set [5] it was 64 µg/mL (≈ 144 µM); in data set [6], 64 µg/mL (≈ 144 µM). Further, in data set [4], the IC50 at 48 h is greater than 20 µM.

For the molecule `CC1CCCc2sc3c(=O)n(N)c(SCC(=O)NC(=O)Nc4ccccc4)nc3c21` (centres unmarked) [ZINC19797060], the MIC in data set [1] worked out at 64 µg/mL (≈ 144 µM); in data set [2], 32 µg/mL (≈ 72.1 µM); in data set [3], 64 µg/mL (≈ 144 µM); in data set [5] it was 64 µg/mL (≈ 144 µM); in data set [6], 16 µg/mL (≈ 36.1 µM). In data set [4], this molecule returned an IC50 at 48 h greater than 20 µM.

Regarding `COc1cc(CNCCc2ccc(S(N)(=O)=O)cc2)ccc1OCC(=O)NC(C)(C)C` [ZINC19922703], the MIC in data set [1] turned out to be 64 µg/mL (≈ 142 µM); in data set [2], 32 µg/mL (≈ 71.2 µM); in data set [3], 64 µg/mL (≈ 142 µM); in data set [5] it was 64 µg/mL (≈ 142 µM); in data set [6] it was 32 µg/mL (≈ 71.2 µM). In data set [4], this molecule yielded an IC50 at 48 h greater than 20 µM.
